# Data as given in a flash point compilation (Sun et al. 2020).
row,flash point,Structure (SMILES)
1,25.1 °C,CCCC(C)CCl (stereo not given) [1-Chloro-2-methylpentane]
2,25.1 °C,CCCCC(C)Cl (stereo not given) [2-Chlorohexane]
3,51.7 °C,"CCCC(C)(Cl)C(C)(C)C (stereo not given) [3-Chloro-2,2,3-trimethylhexane]"
4,43.6 °C,"CCCC(C)(Cl)C(C)C (stereo not given) [3-Chloro-2,3-dimethylhexane]"

# Remark: another data set of the same source
row,flash point,Structure (SMILES)
1,-20 °C,C/C=C/CCC [trans-2-hexene]
2,-34 °C,C=C(C)CC [2-methyl-1-butene]
3,-20 °C,C=C(CC)CC [2-ethyl-1-butene]
4,5 °C,"C[C@@H]1CCC[C@H](C)C1 [cis-1,3-dimethylcyclohexane]"
5,-15 °C,C1=CC2CCC1C2 [2-norbornene]
6,6 °C,"C[C@@H]1CCCC[C@H]1C (relative stereo) [trans-1,2-dimethylcyclohexane]"

row,Structure (SMILES),flash point
1,CCCCc1ccccc1 [n-butylbenzene],59 °C

# Remark: another data set of the same source
row,flash point,Structure (SMILES)
1,8 °C,CC#CCCCC [2-heptyne]

# Remark: another data set of the same source
row,flash point,Structure (SMILES)
1,-15 °C,CCCC(C)CC (stereo not given) [3-Methylhexane]
2,31 °C,CCC(C)CC(CC)CC (stereo not given) [3-Ethyl-5-methylheptane]
3,41 °C,"CC(C)CCCCC(C)C [2,7-Dimethyloctane]"
4,15 °C,"CCC(C)CC(C)(C)C (stereo not given) [2,2,4-Trimethylhexane]"
5,15 °C,"CCC(C)CC(C)CC (stereo not given) [3,5-Dimethylheptane]"
6,-0 °C,"CC(C)C(C)C(C)C [2,3,4-Trimethylpentane]"
7,15 °C,"CCCCC(C)C(C)C (stereo not given) [2,3-Dimethylheptane]"
8,15 °C,"CCCC(C)(C)CCC [4,4-Dimethylheptane]"
9,41 °C,CCCCC(C)(CC)CC [3-Ethyl-3-methylheptane]
10,24 °C,"CCCCCC(C)(C)C [2,2-Dimethylheptane]"
11,31 °C,"CCC(C)C(C)C(C)(C)C (stereo not given) [2,2,3,4-Tetramethylhexane]"
12,4 °C,"CCC(C)C(C)CC (stereo not given) [3,4-Dimethylhexane]"
13,15 °C,"CCCC(C)(C)C(C)C [2,3,3-Trimethylhexane]"
14,-23 °C,CCCC(C)C [2-Methylpentane]
15,31 °C,"CC(C)CC(C)CC(C)C [2,4,6-Trimethylheptane]"
16,41 °C,"CCCCCC(C)(C)CC [3,3-Dimethyloctane]"
17,10 °C,"CCC(C)CC(C)C (stereo not given) [2,4-Dimethylhexane]"
18,41 °C,"CCCC(C)CC(C)CC (stereo not given) [3,5-Dimethyloctane]"
19,-1 °C,"CCCC(C)(C)CC [3,3-Dimethylhexane]"

row,flash point,Structure (SMILES)
1,13 °C,"CCC(CC)C(C)(C)C [3-Ethyl-2,2-dimethylpentane]"
2,95 °C,"CC(CC(C)(C)C)CC(C)(C)CC(C)(C)C (stereo not given) [2,2,4,4,6,8,8-Heptamethylnonane]"
3,-32 °C,CCC(C)CC [3-Methylpentane]
4,-4 °C,"CCCCC(C)(C)C [2,2-Dimethylhexane]"
5,15 °C,"CCCC(C)CC(C)C (stereo not given) [2,4-Dimethylheptane]"
6,31 °C,"CCC(C)(C)C(C)C(C)C (stereo not given) [2,3,4,4-Tetramethylhexane]"
7,31 °C,"CCC(C)(C)CC(C)(C)C [2,2,4,4-Tetramethylhexane]"
8,-23 °C,"CCCC(C)(C)C [2,2-Dimethylpentane]"
9,41 °C,"CCCCCC(C)C(C)C (stereo not given) [2,3-Dimethyloctane]"
10,31 °C,"CCC(C)(C)C(C)(C)CC [3,3,4,4-Tetramethylhexane]"
11,3 °C,CCC(C)(CC)CC [3-Methyl-3-ethylpentane]
12,15 °C,"CCC(C)(C)CC(C)C [2,4,4-Trimethylhexane]"
13,15 °C,CCCC(CC)CCC [4-Ethylheptane]
14,15 °C,CCC(C)C(CC)CC (stereo not given) [3-Ethyl-4-methylhexane]
15,31 °C,"CC(C)C(C)C(C)C(C)C (stereo not given) [2,3,4,5-Tetramethylhexane]"
16,-3 °C,"CCC(C)C(C)(C)C (stereo not given) [2,2,3-Trimethylpentane]"
17,24 °C,CCCCCC(C)CC (stereo not given) [3-Methyloctane]
18,-65 °C,"CC(C)(C)C [2,2-Dimethylpropane]"

# Remark: another data set of the same source
row,flash point,Structure (SMILES)
1,30.00 °C,CC[Si](Cl)(CC)CC [Triethylchlorosilane]
2,11.00 °C,CCO[Si](C)(C)OCC [Dimethyldiethoxysilane]
3,138.00 °C,C[Si](Cl)(c1ccccc1)c1ccccc1 [Methyldiphenylchlorosilane]
4,37.00 °C,CC(C)[SiH](C(C)C)C(C)C [Triisopropylsilane]
5,43.00 °C,C=C(CCl)C[Si](C)(C)C [2-Chloromethyl-3-trimethylsilyl-1-propene]

# Remark: another data set of the same source
row,flash point,Structure (SMILES)
1,-6 °C,CC=C(CC)CC [3-ethyl-2-pentene]
2,-17 °C,C=CC(CC)CC [3-ethyl-1-pentene]
3,35 °C,CCCCC1CCCC1 [n-butylcyclopentane]
4,29 °C,C=CCC1CCCCC1 [allylcyclohexane]
5,2 °C,CC#CCCCC [2-heptyne]
6,24 °C,CCCCCCC(C)C [2-methyloctane]
7,-27 °C,C/C=C/CCC [trans-2-hexene]
8,16 °C,"CCC(C)(C)C(C)(C)C [2,2,3,3-tetramethylpentane]"
9,66 °C,CCCCCC1CCCCC1 [n-pentylcyclohexane]
10,15 °C,"CCC(C(C)C)C(C)C [3-ethyl-2,4-dimethylpentane]"
11,12 °C,"CC1=CC(C)CCC1 (stereo not given) [1,3-dimethylcyclohexene]"
12,-9 °C,CC/C=C\CCC [cis-3-heptene]
13,7 °C,"CC1(C)CCCCC1 [1,1-dimethylcyclohexane]"
14,-47 °C,C=C(C)CC [2-methyl-1-butene]
15,41 °C,CCCC(CCC)CCC [4-propylheptane]
16,63 °C,"Cc1cc(C)c(C)c(C)c1 [1,2,3,5-tetramethylbenzene]"
17,15 °C,"CCC(C)CCC(C)C (stereo not given) [2,5-dimethylheptane]"

row,flash point,Structure (SMILES)
1,5 °C,CCCC(C)CCC [4-methylheptane]
2,-3 °C,"CCCCC(C)(C)C [2,2-dimethylhexane]"
3,2 °C,C=CCC(C)CCC (stereo not given) [4-methyl-1-heptene]
4,-26 °C,C=C(CC)CC [2-ethyl-1-butene]
5,-8 °C,C/C=C\CCCC [cis-2-heptene]
6,16 °C,CCCC1CCCC1 [propylcyclopentane]
7,6 °C,"C[C@@H]1CCC[C@H](C)C1 [cis-1,3-dimethylcyclohexane]"
8,-25 °C,CC/C=C/CC [trans-3-hexene]
9,-14 °C,C1=CC2CCC1C2 [2-norbornene]
10,14 °C,CC(C)C1CCCC1 [isopropylcyclopentane]
11,1 °C,C=CC(CC)CCC (stereo not given) [3-ethyl-1-hexene]
12,-36 °C,C/C=C\C(C)C [cis-4-methyl-2-pentene]
13,36 °C,"CCCCCC(C)C(C)C (stereo not given) [2,3-dimethyloctane]"
14,-18 °C,C=CC(C)CCC (stereo not given) [3-methyl-1-hexene]
15,31 °C,"CCCCCCC(C)(C)C [2,2-dimethyloctane]"
16,7 °C,"C[C@@H]1CCCC[C@H]1C (relative stereo) [trans-1,2-dimethylcyclohexane]"

row,Structure (SMILES),flash point
1,C1CC[C@H]2CCCC[C@H]2C1 [cis-decalin],58 °C
2,CCCCc1ccccc1 [n-butylbenzene],50 °C
3,C1CCC(C2CCCCC2)CC1 [bicyclohexyl],92 °C
